Results: patent US11008362B2, “Malonyl-coenzyme A mimics as fatty acid synthase inhibitors and methods of use” (priority 2018, dated 2021)

Columns and labels:
[1] = target: MMCD (Escherichia coli, UniProt P52045); settings: coupled assay, pH 7.2 and 37° C., not optimized; cited from earlier work
[2] = target: T1, Escherichia coli methylmalonyl-CoA decarboxylase (YgfG, MMCD) (Escherichia coli, UniProt P52045); assay: Inhibition assays of MMCD by 4-9 (HPLC detection, kcat/Km approximation at low substrate); type: biochemical; settings: 200 μM methylmalonyl-CoA, 1 nM MMCD, pH 6.5, 25° C.; read-out: Ki (inhibition constant, competitive inhibition)
T1 construct: made in house; host or cells: E. coli BL21 (DE3)
Method: Initially we attempted to use isothermal titration calorimetry to determine the binding affinity of our analogs to MMCD. […] Because of this secondary site causes problems with biophysical characterization of binding affinity, we used the kcat/Km approximation at low substrate concentrations for the determination of inhibition constants for our analogs. These assays gave Kis of 7.5±1.1 μM for 4, 3.8±1.6 μM for 5, 7.1±1.7 μM for 6, 10.8±2.3 μM for 7, 20.6±2.7 μM for 8 and 19.8±1.4 μM for 9. The sulfonate isosteres bind tighter than the nitro isosteres in general. Our results have been published and incorporated herein by reference in its entirety (Stunkard, L M, et al., J. Am. Chem. Soc. 2019, 141, 5121-5124).
General procedure for MMCD-His6 catalyzed activity assays. The reactions were performed in a 550 μL reaction mixture which contained 50 mM potassium phosphate buffer (KH2PO4/K2HPO4) at pH 6.5 unless otherwise noted, 10 mM MgCl2, methylmalonyl-CoA and the assay was initiated by the addition of MMCD. Reaction mixtures were incubated at 25° C., 65 μL aliquots taken at times noted below were quenched with 25 μL of 50% TFA v/v, precipitating the protein. Centrifugation at 2000 rpm at 25° C. for 10 minutes was used to pellet the protein and the supernatant was analyzed via the procedure outlined below.
General procedure for determination of methylmalonyl-CoA, propionyl-CoA and CoA concentrations in MMCD catalyzed assays. Substrate and product concentrations were determined using HPLC with detection at A254 over the 250×4.6 mm C18(2) column. The analytes were separated with a 2→25% gradient of 0.1% TFA in water→ACN over 20 min. Peak areas of substrate and products were converted to concentration by summing their areas and dividing each peak by this total to give relative percentages that were converted to concentration by adjusting to the starting concentration of methylmalonyl-CoA. This procedure gave essentially the same values as using a standard curve to generate concentrations for each peak, but enhanced reproducibility due to small differences in recovery from the reaction quenching step outlined above.
Inhibition assays of MMCD by 4-9 were performed according to the general procedure above with 200 μM methylmalonyl-CoA, 4-9 (0 μM, 2 μM, 5 μM, 20 μM, and 50 μM) and the assay was initiated by the addition of 1 nM MMCD. Aliquots were taken at the times 20s, 40s, 60s, 150s, 300s, 600s, 900s, and 1800s.
The initial rates (Vi) of decomposition of methylmalonyl-CoA were determined by fitting the progress curve data to equation (1) which describes a simple exponential decay with rate (k), time (t) and initial substrate concentration ([S]t). The rate of formation of propionyl-CoA or CoA could be fit to equation (2). The derivative at time 0 for Equation (1) divided by enzyme concentration gives the initial rates Vi as shown in equation (3). Using this method rather than linear estimation from the early data points gave similar values. However, it allowed more accurate determination of Vi at early time points. [S]=[S]t·e^−k·t Equation (1) [S]=[S]t·(1−e^k·t) Equation (2) Vi=([S]t·k)/[E] Equation (3)
Inhibition of MMCD by 4-9 was determined by fitting initial rate data to equation (6), which describes competitive inhibition and […] describes the Vi in the presence of inhibitor (Lu, J, et al., Protein Eng. Des. Sel. 2017, 30, 395-399). The values of (Vi·Vis)/(Vii−Vis) and Km/kcat were determined from the initial slopes of Vi or Vii versus substrate concentration rather than from the full assay, see Figures S5 and S9. A minimum of two concentrations were used, 20 or 50 μM of each 4-9 and the experiments were repeated at least twice.

T1 sequence (P52045 whole entry): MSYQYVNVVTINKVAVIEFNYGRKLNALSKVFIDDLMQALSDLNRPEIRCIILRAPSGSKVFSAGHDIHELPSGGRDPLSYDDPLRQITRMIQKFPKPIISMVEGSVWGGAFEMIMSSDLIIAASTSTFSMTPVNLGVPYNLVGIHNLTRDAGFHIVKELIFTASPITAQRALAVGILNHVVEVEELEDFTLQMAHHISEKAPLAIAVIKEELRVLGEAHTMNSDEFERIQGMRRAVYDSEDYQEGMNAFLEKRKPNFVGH
Sequence of MMCD (P52045 whole entry): as above

| SMILES | Km [1] [µM] | kcat [1] [s⁻¹] | Ki [2] [µM] |
| --- | --- | --- | --- |
| C[C@@H](C(=O)O)C(=O)SCCNC(=O)CCNC(=O)[C@H](O)C(C)(C)COP(=O)(O)OP(=O)(O)OC[C@H]1O[C@@H](n2cnc3c(N)ncnc32)[C@H](O)[C@@H]1OP(=O)(O)O [(2S)-methylmalonyl-CoA] | 13.6 | 1.6 | – |
| CC(C(=O)SCCNC(=O)CCNC(=O)C(O)C(C)(C)COP(=O)(O)OP(=O)(O)OCC1OC(n2cnc3c(N)ncnc32)C(O)C1OP(=O)(O)O)S(=O)(=O)O (centres unmarked) [compound 4, 2-sulfonatepropionyl-S-CoA] | – | – | 7.5 ± 1.1 |
| CC(C(=O)OCCNC(=O)CCNC(=O)C(O)C(C)(C)COP(=O)(O)OP(=O)(O)OCC1OC(n2cnc3c(N)ncnc32)C(O)C1OP(=O)(O)O)S(=O)(=O)O (centres unmarked) [compound 5, 2-sulfonatepropionyl-oxa(dethia)CoA] | – | – | 3.8 ± 1.6 |
| CC(C(=O)NCCNC(=O)CCNC(=O)C(O)C(C)(C)COP(=O)(O)OP(=O)(O)OCC1OC(n2cnc3c(N)ncnc32)C(O)C1OP(=O)(O)O)S(=O)(=O)O (centres unmarked) [compound 6, 2-sulfonatepropionyl-amino(dethia)CoA] | – | – | 7.1 ± 1.7 |
| CC(C(=O)SCCNC(=O)CCNC(=O)[C@H](O)C(C)(C)COP(=O)(O)OP(=O)(O)OC[C@H]1O[C@@H](n2cnc3c(N)ncnc32)[C@H](O)[C@@H]1OP(=O)(O)O)[N+](=O)[O-] (some centres unmarked) [compound 7, 2-nitropropionyl-S-CoA] | – | – | 10.8 ± 2.3 |
| CC(C(=O)OCCNC(=O)CCNC(=O)[C@H](O)C(C)(C)COP(=O)(O)OP(=O)(O)OC[C@H]1O[C@@H](n2cnc3c(N)ncnc32)[C@H](O)[C@@H]1OP(=O)(O)O)[N+](=O)[O-] (some centres unmarked) [compound 8, 2-nitropropionyl-oxa(dethia)CoA] | – | – | 20.6 ± 2.7 |
| CC(C(=O)NCCNC(=O)CCNC(=O)[C@H](O)C(C)(C)COP(=O)(O)OP(=O)(O)OC[C@H]1O[C@@H](n2cnc3c(N)ncnc32)[C@H](O)[C@@H]1OP(=O)(O)O)[N+](=O)[O-] (some centres unmarked) [compound 9, 2-nitropropionyl-amino(dethia)CoA] | – | – | 19.8 ± 1.4 |
